In PubChem BioAssay AID179 (DTP/NCI, 2004):
Active and inactive are the calls of the source.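 The calls were made as follows: active = compounds giving half or more protection of infected cells from virus-caused growth loss, again on retest; inactive = the rest.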

System: CEM cells HIV-1 protection, formazan growth assay
Assay: NCI AIDS Antiviral Assay
Conditions: for IC50: measured here: growth of uninfected CEM cells
In short: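 CEM (human) cells, HIV-1 infected vs uninfected, 5-point dosing, formazan growth read-out. Retest threshold 50% protection.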

N=c1nnc2ccc(Cl)cc2n1O was tested, and the EC50 was greater than 200 µM and the IC50 was 33.1 µM.
CCOC(=O)C(CC[C@@H]1N[C@H](C(N)=O)Cc2c1[nH]c1ccccc21)C(=O)OCC gave an EC50 greater than 89.1 µM and an IC50 greater than 89.1 µM.
Work on CC/C(=N/O)c1ccc2[nH]c3c(C)cc([N+](=O)[O-])c(C)c3c2c1 yielded an EC50 greater than 12 µM and an IC50 of 7.41 µM.
Compound COc1ccc(C2NC(=S)N3C(c4ccc(OC)c(OC)c4)NC(=S)N23)cc1OC (centres undefined) has an EC50 greater than 200 µM and an IC50 greater than 200 µM.
With CCOC(=O)/C(=C/c1ccc(N(CCC#N)CCC#N)cc1C)NC(=O)/C=C/c1ccccc1 the outcome was “inactive”.
Compound [N-]=[N+]=Nc1cc(=O)oc2ccccc12 has an EC50 greater than 200 µM and an IC50 of 117 µM.
With CCCCn1c(-c2ccccc2)cs/c1=N\Nc1nc2c(c(=O)n(C)c(=O)n2C)n1C the EC50 was greater than 200 µM and the IC50 was 10.7 µM.
With COC(=O)c1ccccc1N1C(=O)Cc2ccccc2C1=O the outcome was “inactive”.
COC(=O)c1cc2ccc(OC(C)=O)c(OC(C)=O)c2cn1 gave an EC50 greater than 166 µM and an IC50 of 0.851 µM.
For O=C(Nc1cc(Cl)c(Cl)cc1Cl)C(=O)C(C(=O)c1ccc(Cl)c(Cl)c1)C1OC(=O)c2ccccc21 (centres undefined), the EC50 was greater than 45.7 µM and the IC50 was 22.4 µM.
For O=c1c(=O)c2c3c(ccc12)OCO3, the outcome was “inactive”.
Work on Cc1ccc(S(=O)(=O)N=C2C=C(C(C)(C)C)C(=O)C(C(C)(C)C)=C2)cc1 yielded an EC50 greater than 36.3 µM and an IC50 greater than 36.3 µM.
For CN(O)C(=O)Cc1ccccc1, the EC50 was greater than 15.1 µM and the IC50 was greater than 15.1 µM.
Cc1ccc(-n2cc(-c3ccc(Cl)cc3)c3c2N=CN2NC(c4ccco4)=NC32)cc1 (centres undefined) was tested, and the EC50 was greater than 100 µM and the IC50 was 74.1 µM.
O=c1[nH][nH]c(=O)c2nc3c(nc12)c1nc2c(=O)[nH][nH]c(=O)c2nc1c1nc2c(=O)[nH][nH]c(=O)c2nc31 was tested, and the outcome was “inactive”.
CCOc1cc2c(cc1O)/C(=N/NS(=O)(=O)c1ccc(C)cc1)C[C@@H]1[C@@H]2CC[C@]2(C)[C@@H](O)CC[C@@H]12 gave an EC50 greater than 200 µM and an IC50 of 0.229 µM.
O=C1c2ccccc2C(=O)c2sc(Nc3ccc(Cl)c(Cl)c3)nc21 gave an EC50 greater than 19.1 µM and an IC50 of 15.8 µM.
For COc1ccc(Br)c(N/N=C2\CCCNC2=O)c1, the outcome was “inactive”.
Compound CCOC(=O)CCC(NC(=O)OCc1ccccc1)C(=O)NC(CCC(=O)OCC)C(=O)NC(CCC(=O)OCC)C(=O)NC(CCC(=O)OCC)C(=O)NC(CCC(=O)OCC)C(=O)NC(CCC(=O)OCC)C(=O)NC(CCC(=O)OCC)C(=O)OCC (centres undefined) has an EC50 greater than 100 µM and an IC50 of 30.2 µM.
With CCCCCCCCCCCCC(N=[N+]=[N-])C(=O)OCC1OC(n2cc(C)c(=O)[nH]c2=O)CC1O (centres undefined) the EC50 was greater than 20.4 µM and the IC50 was greater than 20.4 µM.
CCN(CC)c1ccc2c(c1)Oc1cc(N(CC)CC)ccc1C2c1ccccc1C(=O)O gave an EC50 greater than 200 µM and an IC50 greater than 200 µM.
N#C/C(=C\c1ccccc1)S(=O)(=O)/C(C#N)=C/c1ccc(O)c(O)c1 was tested, and the EC50 was greater than 200 µM and the IC50 was 29.5 µM.
Work on Cn1c(N)c(Cc2ccc(Cl)cc2)c(=O)[nH]c1=O yielded an EC50 greater than 200 µM and an IC50 greater than 200 µM.
Cc1c[nH]c(C(=O)O)c1-c1ccc2c(-c3ccccc3)nc3ccccc3n12 gave an EC50 greater than 200 µM and an IC50 of 33.1 µM.
Cc1nnc(N/N=C(/C(=O)C(C#N)c2ccc(Cl)cc2)C(C#N)c2ccc(Cl)cc2)n1N (centres undefined) showed an EC50 greater than 537 µM and an IC50 of 91.2 µM.
With CC(C)(CN1CCCCC1)C(=O)/C=C/c1ccccc1 the EC50 was greater than 141 µM and the IC50 was 69.2 µM.
O=C1NCCCCC1CC/C=C/c1ccccc1 (centres undefined) was tested, and the EC50 was greater than 148 µM and the IC50 was 95.5 µM.
With CC1=C(C(=O)OC2CC3CCC2(C)C3(C)C)C2Nc3ccccc3N(C)C2O1 (centres undefined) the EC50 was greater than 200 µM and the IC50 was 6.46 µM.
For CCCC(=O)Nc1cc2c3c(c1)CCCN3CCC2, the EC50 was greater than 200 µM and the IC50 was 79.4 µM.
With CC1=CC(O)(c2ccccn2)P(=O)(c2ccccc2)C=C1C (centres undefined) the EC50 was greater than 794 µM and the IC50 was greater than 794 µM.
O=C(Nc1ccc(Cl)c(Cl)c1)OCC#CCOC(=O)Nc1ccc(Cl)c(Cl)c1 showed an EC50 greater than 200 µM and an IC50 of 8.91 µM.
Compound Cc1nc2ccncc2[nH]1 has an EC50 greater than 269 µM and an IC50 of 191 µM.
With CC(=O)/C(=C/n1c(=S)sc2ccccc21)C(=O)Nc1ccccc1C the EC50 was greater than 200 µM and the IC50 was 170 µM.
Compound Cc1nnc2nc(N)[nH]n2c1=O has an EC50 greater than 200 µM and an IC50 greater than 200 µM.
For Nc1nc2ccccc2nc1N, the EC50 was greater than 200 µM and the IC50 was greater than 200 µM.
With COC(=O)C(=O)C(C(=O)C(=O)Nc1cccc(C(C)=O)c1)c1nc2ccccc2[nH]c1=O (centres undefined) the EC50 was greater than 575 µM and the IC50 was 302 µM.
In the case of CCC[CH2][Sn]([CH2]CCC)([O]C(=O)c1cc(OC)c(OC)c(OC)c1)[O]C(=O)c1cc(OC)c(OC)c(OC)c1, the EC50 is reported as greater than 11 µM and the IC50 is reported as 1.45 µM.
COP(=O)(N/N=C/C(=O)O)OC showed an EC50 greater than 1260 µM and an IC50 greater than 1260 µM.
In the case of CN1C(=O)C(O)CC1c1ccc(C(F)(F)F)cc1 (centres undefined), the outcome is reported as “inactive”.
For CCOc1ccc(/C=C2/C(=O)N(/C=C3/C(=O)Oc4ccccc4C3=O)C(=NC(C)=O)N2C)cc1, the EC50 was greater than 200 µM and the IC50 was greater than 200 µM.
CC1CCC(=O)C(C(=O)CC2CC(=O)NC(=O)C2)C1 (centres undefined) showed an EC50 greater than 200 µM and an IC50 greater than 200 µM.
In the case of COC1=C(CC(C)=O)C(=O)c2c(O)c(CO)cc(O)c2C1=O, the outcome is reported as “inactive”.
COC(=O)/C=C\C(=O)/C=C/COC(=O)c1ccccc1 showed an EC50 greater than 132 µM and an IC50 of 20.9 µM.
